Test results taken from ChEMBL document CHEMBL3785071, “Development of potential broad spectrum antimicrobials using C2-symmetric 9-fluorenone alkyl amine” (Bioorg Med Chem Lett, 2016).
≈ marks a conversion by molar mass, not a printed value. Calls of active or inactive are those of the source. The rule behind the calls is not given here.

Experiments:
Staphylococcus aureus [1] = test: Antibacterial activity against Staphylococcus aureus ATCC 25923 after 20 hrs; type: functional
Staphylococcus aureus [2] = test: Antibacterial activity against methicillin-resistant Staphylococcus aureus Lac JE2 USA300 after 20 hrs; type: functional; settings: LAC JE2 USA300, 20 h
Pseudomonas aeruginosa [3] = test: Antibacterial activity against Pseudomonas aeruginosa ATCC 27853 at 100 ug/ml after 20 hrs; type: functional, organism-based
Burkholderia cepacia [4] = test: Antibacterial activity against Burkholderia cepacia ATCC 25608 after 20 hrs; type: functional
Bacillus anthracis = test: Antibacterial activity against Bacillus anthracis Sterne after 20 hrs; type: functional
Klebsiella pneumoniae [5] = test: Antibacterial activity against Klebsiella pneumoniae ATCC BAA-1706 after 20 hrs; type: functional; settings: ATCC BAA-1706, 20 h
[6] = test system: Burkholderia thailandensis; test: Antibacterial activity against Burkholderia thailandensis ATCC 700388 after 20 hrs; type: functional
Escherichia coli [7] = test: Antibacterial activity against Escherichia coli ATCC 35218 at 100 ug/ml after 20 hrs; type: functional, organism-based
[8] = Antibacterial activity against Francisella tularensis subsp. holarctica ATCC 29684 after 20 hrs; type: functional; settings: ATCC 29684, 20 h
Yersinia pestis [9] = test: Antibacterial activity against Yersinia pestis A1122 at 100 ug/ml after 20 hrs; type: functional
[10] = test system: Burkholderia thailandensis; test: Antibacterial activity against Burkholderia thailandensis ATCC 700388 at 100 ug/ml after 20 hrs; type: functional
Staphylococcus aureus [11] = test: Antibacterial activity against methicillin-resistant Staphylococcus aureus Lac JE2 USA300 at 100 ug/ml after 20 hrs; type: functional, organism-based
Pseudomonas aeruginosa [12] = test: Antibacterial activity against Pseudomonas aeruginosa ATCC 27853 after 20 hrs; type: functional; settings: ATCC 27853, 20 h
[13] = test system: Francisella tularensis subsp. holarctica; test: Antibacterial activity against Francisella tularensis subsp. holarctica ATCC 29684 at 100 ug/ml after 20 hrs; type: functional
Staphylococcus aureus [14] = test: Antibacterial activity against Staphylococcus aureus ATCC 25923 at 100 ug/ml after 20 hrs; type: functional, organism-based
Klebsiella pneumoniae [15] = test: Antibacterial activity against Klebsiella pneumoniae ATCC BAA-1706 at 100 ug/ml after 20 hrs; type: functional, organism-based
Staphylococcus aureus [16] = test: Inhibition of Staphylococcus aureus DnaG primase activity after 1 hr by HPLC analysis
[17] = Inhibition of Bacillus anthracis Sterne 34F2 DnaG primase activity using a DNA 32-mer template; design: species or system Bacillus anthracis str. Sterne
Burkholderia cepacia [18] = test: Antibacterial activity against Burkholderia cepacia ATCC 25608 at 100 ug/ml after 20 hrs; type: functional, organism-based
Yersinia pestis [19] = test: Antibacterial activity against Yersinia pestis A1122 after 20 hrs; type: functional; settings: A1122, 20 h
Escherichia coli [20] = test: Antibacterial activity against Escherichia coli ATCC 35218 after 20 hrs; type: functional; settings: ATCC 35218, 20 h

Row | SMILES | MIC (Staphylococcus aureus [2]) | Activity (Pseudomonas aeruginosa [3]) | MIC (Burkholderia cepacia [4]; ATCC 25608, 20 h) | MIC (Bacillus anthracis) | Activity (Escherichia coli [7]) | MIC [8] | Activity (Yersinia pestis [9]) | Activity [10] | Activity (Staphylococcus aureus [11]) | Activity [13] | Activity (Staphylococcus aureus [14]) | Activity (Klebsiella pneumoniae [15]) | other results
1 | O=C1c2cc(OCCCCCCCCN3CCCCC3)ccc2-c2ccc(OCCCCCCCCN3CCCCC3)cc21 | 16 µg/mL (≈ 26.5 µM) | inactive | 87.5 µg/mL (≈ 145 µM) | 17.5 µg/mL (≈ 29 µM) | inactive | 37.5 µg/mL (≈ 62.2 µM) | inactive | – | – | – | – | – | MIC (Staphylococcus aureus [1]; ATCC 25923, 20 h): 62.5 µg/mL (≈ 104 µM); MIC (Klebsiella pneumoniae [5]): 100 µg/mL (≈ 166 µM); MIC ([6]; ATCC 700388, 20 h): 25 µg/mL (≈ 41.5 µM)
2 | O=C1c2cc(OCCCN3CCCCC3)ccc2-c2ccc(OCCCN3CCCCC3)cc21 | – | – | – | 75 µg/mL (≈ 162 µM) | inactive | – | inactive | inactive | inactive | inactive | inactive | inactive | MIC (Burkholderia cepacia [4]): inactive; MIC (Pseudomonas aeruginosa [12]): 100 µg/mL (≈ 216 µM)
3 | CCN(CC)CCOc1ccc2c(c1)C(=O)c1cc(OCCN(CC)CC)ccc1-2 [TILORONE] | – | – | – | – | – | – | – | – | – | – | – | – | Activity (Staphylococcus aureus [1]): inactive; inhibition (Staphylococcus aureus [16]): Active; IC50 [17]: 7.1 µM
4 | O=C1c2cc(OCCN3CCCCC3)ccc2-c2ccc(OCCN3CCCCC3)cc21 | – | inactive | 100 µg/mL (≈ 230 µM) | 100 µg/mL (≈ 230 µM) | inactive | – | inactive | inactive | inactive | inactive | inactive | inactive | –
5 | C=CCN(C)CCOc1ccc2c(c1)C(=O)c1cc(OCCN(C)CC=C)ccc1-2 | – | inactive | – | 100 µg/mL (≈ 246 µM) | inactive | – | inactive | inactive | inactive | inactive | inactive | inactive | Activity (Burkholderia cepacia [18]): inactive
6 | C=CCN(C)CCCCCCCCOc1ccc2c(c1)C(=O)c1cc(OCCCCCCCCN(C)CC=C)ccc1-2 | 16 µg/mL (≈ 27.8 µM) | inactive | 100 µg/mL (≈ 174 µM) | 17.5 µg/mL (≈ 30.4 µM) | inactive | 37.5 µg/mL (≈ 65.2 µM) | inactive | – | – | – | – | inactive | MIC (Staphylococcus aureus [1]; ATCC 25923, 20 h): 50 µg/mL (≈ 87 µM); MIC ([6]; ATCC 700388, 20 h): 17.5 µg/mL (≈ 30.4 µM)
7 | C=CCOc1ccc2c(c1)C(=O)c1cc(OCCCN(C)CC=C)ccc1-2 | 32 µg/mL (≈ 88 µM) | inactive | – | 25 µg/mL (≈ 68.8 µM) | inactive | 50 µg/mL (≈ 138 µM) | inactive | inactive | – | – | inactive | inactive | Activity (Burkholderia cepacia [18]): inactive
8 | C=CCN(C)CCCOc1ccc2c(c1)C(=O)c1cc(OCCCN(C)CC=C)ccc1-2 | – | – | 100 µg/mL (≈ 230 µM) | 100 µg/mL (≈ 230 µM) | – | – | – | – | inactive | inactive | – | inactive | MIC (Staphylococcus aureus [1]): inactive; MIC (Yersinia pestis [19]): 100 µg/mL (≈ 230 µM); MIC (Pseudomonas aeruginosa [12]): 100 µg/mL (≈ 230 µM); MIC (Escherichia coli [20]): 100 µg/mL (≈ 230 µM); MIC [6]: inactive
